Source: patent publication US5488049A, “Method of treating learning and memory disorders using benzothiadiazide derivatives as nootropic agents” (FIDIA - Georgetown Institute for the Neuro-Sciences, priority 1993, dated 1996)

How the values were obtained:
Type in all cases: cell-based, rat
[1] = system: AMPA receptors located on CAl pyramidal neuronal membranes; assay: Slow bath perfusion, whole-cell: potentiation of glutamate-elicited current (with MK-801) in CAl pyramidal neurons of hippocampal slices
Description: (§1) Young rats (12-16 days old) were decapitated and the brains quickly removed and placed in ice-cold Ringer solution. Thin slices of hippocampus (250 μm) were then cut with a vibratome slicer (Lancer, St. Louis, Mo.) and kept in Ringer solution at 37° C. until use. The experiments were carried out at room temperature with the slice totally submerged in a 1 ml volume recording chamber and under continuous perfusion with Ringer solution at a rate of 6 ml/min using an upright Hoffman modulation contrast microscope (Carl Zeiss, Germany) equipped with a 40×water immersion objective.
(§2) Media and drug application. The external Ringer solution contained (in mM): NaCl 120; KCl 3.1; CaCl2 2; MgCl2 1; KH2 PO4 1; NaHCO3 26; glucose 2.7; and it was continuously bubbled with 95% O2 and 5% CO2. Patch pipettes were filled with a solution containing (in mM): K-gluconate 140; MgCl2 1; ATP.Mg 2; EGTA 0.5; HEPES-KOH 10, pH 7.2. All the drugs under investigation were applied through the recording chamber perfusion system via parallel inputs having a common entry into the chamber. Agonist application was attained using two different systems that allowed a slow or a rapid solution change. Slow solution changes were used during recordings in whole-cell configuration and were obtained by exchanging the solution of the recording chamber within a few seconds. Fast solution changes were obtained with the use of the Y-shaped tubing method that allows complete exchange of solution in less than 10 ms, and is described in detail by Murase et al. (1989).
IDRA compounds (see above for structures) were first dissolved in 50 μl of DMSO, then […] of 1N NaOH and water (sufficient to reach a volume of 1 ml and a concentration of 10 mM). The final concentration was reached diluting the stock solution with Ringer solution.
(§3) Ionic currents in whole-cell configuration and outside-out excised membrane patches were monitored using the patch clamp technique (15).
The action diazoxide and the IDRA analogues were tested on the desensitization of AMPA receptors located on CAl pyramidal neuronal membranes in rat hippocampal slices. In order to evaluate whether the compounds under study increase the intensity of currents generated by the activation of non-NMDA receptors, these receptors were activated with glutamate in the presence of 5 μM MK-801 to block completely the ionic current elicited by glutamate acting on the NMDA receptor channels present in CAl pyramidal neurons. Three distinct methods of drug application were employed: 1) slow bath perfusion of agonist and drugs while recording in whole-cell mode (onset 30s); ii) fast application to outside-out patches of a fixed concentration of agonist with a double barrel pipette (onset<1 ms) in the presence and the absence of drugs; iii) fast perfusion (onset<6 ms) of increasing concentrations of agonist and drugs applied with the Y-tubing device to outside-out patches excised from neurons in brain slices and to voltage-clamped neurons in primary culture.
. The most efficacious (1 mM) derivative was IDRA21, which elicited a potentiation of 797±220% (n=4 cells), followed by IDRA 20 with a potentiation of 292±100% (n=4 cells) (FIG. 2). […]

AMPA receptor [2] = assay: Fast application with double barrel pipette: AMPA receptor desensitization in outside-out patches from CAl hippocampal pyramidal neurons
Description: as §1, §2
Briefly, a polyethylene tubing (1 mm i.d.) is bent in a U-shaped, and another fine polyethylene tubing (50 μi.d.) and 10 mm length) is inserted into a small hole in the U-tubing making the tip of the Y-tubing. Solutions are fed to the Y-tubing by gravity, and negative pressure facilitates exchange of the solution. The tip of the Y-tubing is positioned 100 μm from the cell investigated, and upon opening and closing of a valve that controls the negative pressure, it was possible to respectively change rapidly and apply a number of different test solutions. This method was used to apply agonists to excised outside-out membrane patches. More rapid drug applications were used to apply agonists to excised outside-out membrane patches, and were obtained through a double-barrelled pipette positioned close to the recording pipette containing the membrane patch. […] The agonist was applied for a period of 150 ms and the time necessary for a complete exchange of the solution was less than 1 ms as measured at the opening of a patch pipette containing different dilutions of the drugs under study. […]
Ionic currents in whole-cell configuration and outside-out excised membrane patches were monitored using the patch clamp technique (15). […]

AMPA receptor [3] = assay: Fast application with Y-tubing: dose-response on desensitization of glutamate current in outside-out patches from CAl pyramidal neurons; conditions: increasing doses, 5 μM MK-801
Description: as §2, with “Fast solution changes were obtained with the use of the Y-shaped tubing method that allows complete exchange of solution in less than 10 ms, and is described in detail by Murase et al. (1989).” left out
Briefly, a polyethylene tubing (1 mm i.d.) is bent in a U-shaped, and another fine polyethylene tubing (50 μi.d.) and 10 mm length) is inserted into a small hole in the U-tubing making the tip of the Y-tubing. […] The agonist was applied for a period of 150 ms and the time necessary for a complete exchange of the solution was less than 1 ms as measured at the opening of a patch pipette containing different dilutions of the drugs under study. […]
Dose-response studies were performed with the Y-tubing system, and analyzed with sigmoid interpolation (Graphpad Academic Press). […]

[4] = system: kainate-activated current; assay: Selectivity: ionic current elicited by 20 μM kainate
Description: as §1, §2, §3

[5] = system: EPSCs elicited in CAl pyramidal neurons; assay: Excitatory postsynaptic currents (EPSCs) in CAl pyramidal neurons in hippocampal slices on stimulation of Schaffer collateral afferents
Description: as §1, §3
Traces were filtered at 3 KHz (-3 dB, 8-pole, lowpass Bessel filter, Frequency Devices), and stored in an LSI 11/73 computer (INDEC System, Sunnyvale, Calif.) after digitization (10 KHz) with a Data Translation analog to digital converter. Decay time constants of EPSC and glutamate-activated currents were determined from exponential fitting with the 11/73 system by using an entirely automated least-squares procedures (see Vicini and Schuetze, 1985, for further details). This method uses a Simplex algorithm (Caceci and Cacheris, 1984) to fit the data to either a single or double exponential equation of the form I(t)=If exp(-t/tauf)+Is exp(-t/taus), where If and Is are the amplitudes of the sIPSC fast and slow components, and tauf and taus are their respective decay time constants. Peak amplitudes were measured at the absolute maximum of the currents, taking into account the noise of the baseline and noise around the peak. Rise times were measured as the time elapsed from 20 to 80% of the peak amplitude of the response.
The action of nootropic drugs on the excitatory postsynaptic currents (EPSCs) elicited in CAl pyramidal neurons in hippocampal slices was investigated by stimulation of the Schaffer collateral afferents.

For `CC1Nc2ccc(Cl)cc2S(=O)(=O)N1` (racemic) [IDRA 21, 7-chloro-3-methyl-3,4-dihydro-2H 1,2,4-benzothiadiazine S-S dioxide], the “potentiation of glutamate-elicited current” value ([1]; 10 μM compound, mean±SE, N=4 cells) was 65±6.9%, the “potentiation of glutamate-elicited current” value ([1]; 100 μM compound, mean±SE, N=4 cells) was 109±30% and the “efficacy relative to diazoxide (potentiation of glutamate current)” value ([1]; 1 mM) was 4 fold. The “potentiation of glutamate-elicited current” value ([1]; 1 mM compound, 50 μM glutamate, 5 μM MK-801, whole-cell, slow perfusion) was 797±200%, the “potentiation of glutamate-elicited current” value ([1]; 1 mM compound, 50 μM glutamate, 5 μM MK-801, whole-cell, slow perfusion, listed as IDRA21) was 797±220% and the “maximal efficacy reached, in words” value ([1]; 1 mM, maximal dose testable without vehicle effect) was “failed to reach maximal efficacy at 1 mM”. The “potentiation of glutamate current, dose dependence” value ([1]; up to 1 mM) was “dose-dependent potentiation”, the “removal of glutamate-induced desensitization” value (AMPA receptor [2]; 1 mM IDRA 21, double barrel, outside-out patches, 4 of 5 patches) was “completely removed the desensitization induced by glutamate in 4 of 5 patches tested” and the “desensitization of AMPA/Kainate receptors (summary)” value (AMPA receptor [2]; summary statement) was “reduction in the desensitization of AMPA/Kainate receptors”. The “desensitization of current activated by 100 μM glutamate” value (AMPA receptor [3]) was “decreased by increasing doses”, the “effect on kainate-activated current” value ([4]; 1 mM compound, 20 μM kainate) was “failed to potentiate the kainate-activated current” and the “effect on kainate responses at doses that decreased AMPA desensitization” value ([4]; all doses that decrease/inhibit AMPA desensitization) was “failed to affect kainate responses”. The Emax at 1000 µM ([5]; Rattus norvegicus, Pyramidal neuron, read-out: efficacy in increasing delay time of AMPA current (EPSC) relative to diazoxide) was 300%, the Emax ([5]; Rattus norvegicus, Pyramidal neuron, read-out: response relative to diazoxide (electrophysiology summary)) was 300% and the “response relative to aniracetam (electrophysiology summary)” value ([5]; summary statement) was “one order of magnitude larger than that of aniracetam”.
